Test results from patent US5264429A, “2-spirocyclopropyl cephalosporin sulfone derivatives” (SynPhar Laboratories, Inc., priority 1991, dated 1993).
pIC50: −log10 of the molar value. Each block holds one molecule with its values, some of them ahead of it.

Key:
[1] = target: T1, human leukocyte elastase (HLE) (Homo sapiens, UniProt P08246); test: Enzyme Assay for Inhibition of HLE; format: biochemical; settings: HLE 10 nM, pH 7.6, 10 minute preincubation, 30° C.
T1 construct: from tissue; host or cells: human white blood cells
T1 sequence (P08246 30-247 limits assumed): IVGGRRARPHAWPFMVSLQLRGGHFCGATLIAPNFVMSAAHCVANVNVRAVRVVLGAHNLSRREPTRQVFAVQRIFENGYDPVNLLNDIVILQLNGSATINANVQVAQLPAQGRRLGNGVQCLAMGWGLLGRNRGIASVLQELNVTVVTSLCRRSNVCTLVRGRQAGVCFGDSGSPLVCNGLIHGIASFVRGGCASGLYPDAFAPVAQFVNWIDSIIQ
Description: Enzyme Assay for Inhibition of HLE:
Enzyme: Purified elastase from human white blood cells.
Substrate: MeO-succinyl-L-alanyl-L-alanyl-L-prolyl-L-valine-p-nitro-anilide(NA).
Reaction Mixture: 10 mM phosphate buffer (pH 7.6), 500 mM NaCl, 10% dimethylsulfoxide (DMSO), 0.35 mM substrate.
The enzyme activity was determined by monitoring the increase in absorbance at 410 nm caused by the hydrolysis of chromogenic substrates. Inhibition of enzyme by the compounds described were determined after a 10 minute preincubation with the enzyme in reaction mixture minus substrate. Reaction was initiated by the addition of substrate. The concentration of human leukocyte elastase used for assay was at 10 nM.
HLE, CTG, PPE and CTD were tested at 30° C. and the others were […]

[2] = target: T2, trypsin (Bos taurus, UniProt P00760); test: Inhibition of trypsin (TRY); format: biochemical, bovine; settings: trypsin, pH 8.8, 10 minute preincubation, 22° C.; read-out: IC50 TRY (converted)
T2 construct: from tissue; host or cells: bovine pancreas
T2 sequence (P00760 24-246): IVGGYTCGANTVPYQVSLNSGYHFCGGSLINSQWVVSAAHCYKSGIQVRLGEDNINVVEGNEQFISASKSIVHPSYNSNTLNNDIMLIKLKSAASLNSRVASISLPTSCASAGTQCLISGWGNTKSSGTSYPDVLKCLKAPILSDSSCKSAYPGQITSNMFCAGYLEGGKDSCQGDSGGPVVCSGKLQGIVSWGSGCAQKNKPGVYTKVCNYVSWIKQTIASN

[3] = target: T3, thrombin (Homo sapiens, UniProt P00734); test: Inhibition of thrombin (THR); format: biochemical; settings: pH 8.6, 10 minute preincubation, 22° C.
T3 construct: from tissue; host or cells: human plasma
Description: (§1) HLE, CTG, PPE and CTD were tested at 30° C. and the others were
(§2) TRY, trypsin; THR, thrombin; PTH, plasmin; CTC, cathepsin C; ATM,
Enzyme: Purified thrombin from human plasma
Substrate: Tosyl-glycyl-L-prolyl-L-arginine-p-NA acetate
Reaction mixture: 50 mM Tricine-NaOH buffer (pH 8.6), 500 mM NaCl, 0.1% Polyethyleneglycol 8000, 10% DMSO, 0.5 mM Substrate.
(§3) Except for Cathepsin D, the enzyme activities were determined by monitoring the increase in absorbance at 410 nm caused by the hydrolysis of chromogenic substrates. The activity of Cathepsin D was determined by monitoring the absorbance of 5% trichloroacetic acid-soluble material at 280 nm.
(§4) Inhibition of enzymes by the compounds described were determined after a 10 minute preincubation with enzymes in reaction mixtures minus substrate. Reactions were initiated by the addition of substrates. The concentration used for assays were porcine pancreatic elastase at 240 nM and human Cathepsin G at 50 nM. Cathepsin D was used at the concentration that produced approximately 0.15 O.D. increase per 20 min at 280 nm under the standard conditions. All other proteases were assayed at the concentrations that produced approximately 0.1 O.D. change per minute at 410 nm under the standard conditions.

[4] = target: T4, plasmin (Homo sapiens, UniProt P00747); test: Inhibition of plasmin (PTH); format: biochemical; settings: pH 8.9, 10 minute preincubation, 22° C.
T4 construct: from tissue; host or cells: human plasma
Description: as §1, §2
Enzyme: Purified plasmin from human plasma Substrate: Tosyl-glyclyl-L-prolyl-L-lysine-pNA acetate
Reaction mixture: 50 mM Tris-HCl buffer (pH 8.9), 500 mM NaCl, 5% DMSO, 0.5 mM Substrate.
as §3, §4

[5] = target: T5, cathepsin C (Bos taurus, UniProt Q3ZCJ8); test: Inhibition of cathepsin C (CTC); format: biochemical, bovine; settings: cathepsin C, pH 5.4, 10 minute preincubation, 22° C.; read-out: IC50 CTC
T5 construct: from tissue; host or cells: bovine spleen
Description: as §1, §2
Enzyme: Purified cathepsin C from bovine spleen
Substrate: Glycyl-L-phenylalanine-pNA
Reaction mixture: 50 mM Citrate buffer (pH 5.4), 5 mM B-Mercaptoethanol, 150 mM NaCl, 10% DMSO, 20 mM Substrate.
as §3, §4

[6] = target: T6, aminopeptidase M (Sus scrofa, UniProt P15145); test: Inhibition of aminopeptidase M (ATM); format: biochemical, porcine; settings: aminopeptidase M, pH 7.5, 10 minute preincubation, 22° C.; read-out: IC50 ATM
T6 construct: from tissue; host or cells: porcine kidney
T6 sequence (P15145 1-963): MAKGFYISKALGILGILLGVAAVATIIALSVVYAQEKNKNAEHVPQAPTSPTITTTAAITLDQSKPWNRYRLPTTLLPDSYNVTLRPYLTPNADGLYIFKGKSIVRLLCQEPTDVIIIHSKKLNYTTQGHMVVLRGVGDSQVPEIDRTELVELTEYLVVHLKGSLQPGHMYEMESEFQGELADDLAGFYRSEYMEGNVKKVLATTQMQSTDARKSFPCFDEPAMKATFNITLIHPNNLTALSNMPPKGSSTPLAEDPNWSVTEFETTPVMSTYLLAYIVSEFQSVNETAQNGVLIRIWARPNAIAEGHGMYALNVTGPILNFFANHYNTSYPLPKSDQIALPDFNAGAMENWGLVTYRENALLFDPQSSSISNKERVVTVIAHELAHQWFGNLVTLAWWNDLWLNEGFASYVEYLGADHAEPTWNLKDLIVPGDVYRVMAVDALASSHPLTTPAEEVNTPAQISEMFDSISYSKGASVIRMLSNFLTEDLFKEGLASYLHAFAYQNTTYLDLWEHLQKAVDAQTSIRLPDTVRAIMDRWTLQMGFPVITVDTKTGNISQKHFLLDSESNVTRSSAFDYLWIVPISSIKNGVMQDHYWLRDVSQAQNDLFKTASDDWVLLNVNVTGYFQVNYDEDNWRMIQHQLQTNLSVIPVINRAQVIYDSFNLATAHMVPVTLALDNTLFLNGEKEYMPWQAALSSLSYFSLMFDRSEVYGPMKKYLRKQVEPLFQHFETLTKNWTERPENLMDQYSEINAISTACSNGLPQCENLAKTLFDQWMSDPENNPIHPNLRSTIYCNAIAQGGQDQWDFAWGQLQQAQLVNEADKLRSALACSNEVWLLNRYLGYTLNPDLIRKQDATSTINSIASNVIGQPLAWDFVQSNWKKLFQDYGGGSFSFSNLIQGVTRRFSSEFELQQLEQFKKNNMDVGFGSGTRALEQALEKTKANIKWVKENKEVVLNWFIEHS
Description: as §1, §2
aminopeptidase M; CTG, cathespin G; CTD, cathespin D; PPE, porcine
Enzyme: Purified aminopeptidase M from porcine kidney
Reaction Mixture: 50 mM Tricine buffer (pH 7.5), 500 mM NaCl, 10% DMSO, 2.0 mM Substrate.
as §3, §4

[7] = target: T7, cathepsin G (Homo sapiens, UniProt P08311); test: Inhibition of cathepsin G (CTG); format: biochemical; settings: cathepsin G 50 nM, pH 7.5, 10 minute preincubation, 30° C.; read-out: IC50 CTG (converted)
T7 construct: from tissue; host or cells: human white blood cells
T7 sequence (P08311 21-244 limits assumed): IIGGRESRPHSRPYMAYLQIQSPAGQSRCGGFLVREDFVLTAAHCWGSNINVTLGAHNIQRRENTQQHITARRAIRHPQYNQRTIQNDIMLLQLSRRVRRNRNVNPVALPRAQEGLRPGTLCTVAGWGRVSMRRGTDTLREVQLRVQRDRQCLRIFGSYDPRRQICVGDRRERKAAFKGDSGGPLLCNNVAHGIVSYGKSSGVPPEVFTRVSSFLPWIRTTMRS
Description: Enzyme: Purified Cathepsin G from human white blood cells
Substrate: N-succinyl-L-alanyl-L-alanyl-L-phenylalanyl-L-phenylalanine -p-NA.
Reaction mixture: 10 mM Phosphate buffer (pH 7.5), 500 mM NaCl, 10% DMSO, 2.0 mM Substrate.

[8] = target: T8, cathepsin D (Bos taurus, UniProt P80209); test: Inhibition of cathepsin D (CTD); format: biochemical, bovine
T8 construct: from tissue; host or cells: bovine spleen
Description: as §4, with “Except for Cathepsin D, the enzyme activities were determined by monitoring the increase in absorbance at 410 nm caused by the hydrolysis of chromogenic substrates. The activity of Cathepsin D was determined by monitoring the absorbance of 5% trichloroacetic acid-soluble material at 280 nm. Inhibition” for “Inhibition”, “The concentration used for assays were porcine pancreatic elastase at 240 nM and human Cathepsin G at 50 nM.” left out

T5 sequence (Q3ZCJ8 231-394 limits assumed): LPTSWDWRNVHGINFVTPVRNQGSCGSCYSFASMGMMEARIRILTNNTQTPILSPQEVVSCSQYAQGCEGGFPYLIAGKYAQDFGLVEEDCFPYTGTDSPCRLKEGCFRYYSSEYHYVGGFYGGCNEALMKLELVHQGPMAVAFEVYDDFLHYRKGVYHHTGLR
T5 sequence (Q3ZCJ8 395-463 limits assumed): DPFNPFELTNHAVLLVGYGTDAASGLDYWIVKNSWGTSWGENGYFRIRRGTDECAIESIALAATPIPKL
T5 sequence (Q3ZCJ8 25-134 limits assumed): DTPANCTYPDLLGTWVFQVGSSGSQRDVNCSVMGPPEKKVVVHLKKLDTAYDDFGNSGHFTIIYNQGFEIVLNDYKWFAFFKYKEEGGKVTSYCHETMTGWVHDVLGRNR
T8 sequence (P80209 45-390): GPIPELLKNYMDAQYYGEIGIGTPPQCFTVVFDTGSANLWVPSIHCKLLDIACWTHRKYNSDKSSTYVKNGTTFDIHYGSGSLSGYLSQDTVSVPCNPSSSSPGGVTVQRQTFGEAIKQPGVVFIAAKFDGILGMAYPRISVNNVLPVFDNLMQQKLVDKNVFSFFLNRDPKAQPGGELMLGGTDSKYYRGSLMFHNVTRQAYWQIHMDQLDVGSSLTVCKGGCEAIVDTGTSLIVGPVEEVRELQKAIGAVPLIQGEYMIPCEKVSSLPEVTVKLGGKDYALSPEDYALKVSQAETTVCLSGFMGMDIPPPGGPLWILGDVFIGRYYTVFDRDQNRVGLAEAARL
T4 sequence (P00747 581-810 limits assumed): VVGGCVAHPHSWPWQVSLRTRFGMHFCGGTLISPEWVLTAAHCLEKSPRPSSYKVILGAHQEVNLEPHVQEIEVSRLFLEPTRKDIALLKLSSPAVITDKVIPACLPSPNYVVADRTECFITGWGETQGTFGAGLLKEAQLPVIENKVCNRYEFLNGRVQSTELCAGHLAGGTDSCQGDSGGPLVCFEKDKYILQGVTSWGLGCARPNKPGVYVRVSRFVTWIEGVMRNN
T4 sequence (P00747 97-580 partner limits assumed): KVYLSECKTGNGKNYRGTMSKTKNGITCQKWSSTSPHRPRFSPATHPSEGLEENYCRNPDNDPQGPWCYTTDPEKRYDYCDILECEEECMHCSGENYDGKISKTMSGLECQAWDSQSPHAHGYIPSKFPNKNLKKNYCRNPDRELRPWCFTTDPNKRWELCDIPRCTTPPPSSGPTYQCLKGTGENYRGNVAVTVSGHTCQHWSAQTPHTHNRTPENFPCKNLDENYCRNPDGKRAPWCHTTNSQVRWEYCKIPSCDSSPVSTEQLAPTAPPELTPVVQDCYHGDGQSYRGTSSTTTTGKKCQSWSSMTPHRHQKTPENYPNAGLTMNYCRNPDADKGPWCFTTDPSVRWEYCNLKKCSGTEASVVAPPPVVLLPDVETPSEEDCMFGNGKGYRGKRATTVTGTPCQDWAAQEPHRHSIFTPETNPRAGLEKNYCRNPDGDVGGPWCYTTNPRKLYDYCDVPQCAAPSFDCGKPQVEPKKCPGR

pIC50 [1]: 8.39
Structure (SMILES): COc1ccc(COC(=O)C2=C(CCl)C3(CC3(c3ccccc3)c3ccccc3)S(=O)(=O)[C@@H]3[C@@H](Br)C(=O)N23)cc1 (stereo partly drawn) [p-Methoxybenzyl 7α-bromo-2-spiro(2',2'-diphenyl) cyclopropyl-3-chloromethyl-3-cephem-4-carboxylate-1,1-dioxide]

Structure (SMILES): CC(=O)OCC1=C(C(=O)OC(C)(C)C)N2C(=O)[C@H](Cl)[C@H]2S(=O)(=O)C12CC2(c1ccccc1)c1ccccc1 (stereo partly drawn) [Example 4, t-Butyl 7α-chloro-2-spiro(2',2'-diphenyl)cyclopropyl-3-acetoxymethyl-3-cephem-4-carboxylate-1,1-dioxide]
pIC50 [1]: 7.04

pIC50 [1]: 8.18
Structure (SMILES): CC1=C(C(=O)OC(c2ccccc2)c2ccccc2)N2C(=O)[C@H](Br)[C@H]2S(=O)(=O)C12CC2c1ccccc1 (stereo partly drawn) [Example 13 (3), Benzhydryl 7α-bromo-2-spiro(2'-phenyl)cyclopropyl-3-methyl-3-cephem-4-carboxylate-1,1-dioxide]

Structure (SMILES): CO[C@H]1C(=O)N2C(C(=O)N3CCCCC3)=C(C)C3(CC3(c3ccccc3)c3ccccc3)S(=O)(=O)[C@H]12 (stereo partly drawn) [Example 11, 7α-Methoxy-2-spiro (2',2'-diphenyl)cyclopropyl-3-methyl-3-cephem-4-piperidine carboxamide-1,1-dioxide]
pIC50 [1]: 7.97
IC50 [2]: > 10 µM
pIC50 [3]: < 4.40
pIC50 [4]: < 5.00
pIC50 [5]: < 5.00
pIC50 [6]: < 5.00
IC50 [7]: > 10 µM
pIC50 [8]: 7.50

pIC50 [1]: 7.31
Structure (SMILES): Cc1nnc(SCC2=C(C(=O)OC(c3ccccc3)c3ccccc3)N3C(=O)[C@H](Br)[C@H]3[S+]([O-])C23CC3(c2ccc(Cl)cc2)c2ccc(Cl)cc2)s1 (stereo partly drawn) [Benzhydryl-7α-bromo-2-spiro[2',2'-(4',4'-dichloro)diphenyl]-cyclopropyl-3-[(5-methyl-1,3,4-thiadiazol-2-yl)thiomethyl]-3-cephem-4-carboxylate-1-oxide]

pIC50 [1]: 6.83
Structure (SMILES): CC1=C(C(=O)OC(c2ccccc2)c2ccccc2)N2C(=O)CC2S(=O)(=O)C12CC2(c1ccccc1)c1ccccc1 (stereo not shown) [Example 5, Benzhydryl 7,7-dihydro-2-spiro(2',2'-diphenyl)cyclopropyl-3-methyl-3-cephem-4-carboxylate-1,1-dioxide]
